Reference: patent US6858579B2, “Anti-inflammatory compounds” (William Harvey Research Limited, priority 2001, dated 2005)
Where no end group is shown, it is not given here.

What was measured:
[1] = tested on: PMN migration; experiment: Mouse air-pouch model, zymosan-induced PMN migration; format: in vivo, mice; conditions: for activity in the in vivo animal model of inflammation: mouse air-pouch model, peptide s.c., result in words; for Approximate ED50, inhibition of PMN migration: mouse air-pouch, peptide s.c. 30 min prior to 1 mg zymosan, PMN counted 4 h after zymosan, n=15, P<0.01
Procedure: Male Swiss Albino mice (20-22 g body weight) were purchased from Interfauna (CFLP strain; Huntingdon, Cambridgeshire, UK) and maintained on a standard chow pellet diet with tap water ad libitum. Animals were used at least one week after arrival.
Air-pouches were formed on the back of the mice by subcutaneous (s.c.) injection of 2.5 ml or air on day […]. Three days after the last air-injection (6-day-old air-pouches) 1 mg of zymosan (in 0.5 ml of sterile saline) was injected locally (Perretti et al., 1996). Zymosan was previously boiled for 30 min in phosphate buffered solution (PBS), extensively washed in the same medium and stored at −20° C. prior to use.
Four hours after the local injection of zymosan, mice were killed by CO2 exposure and the air-pouches washed with 2 ml of PBS containing ethylenediaminetetracetic acid sodium salt (EDTA; 3 mM) and heparin (25 U/ml).
Lavage fluids (essentially the entire 2 ml were consistently recovered) were centrifuged at 200 g for 10 min at 4° C. and cell pellets were resuspended in 2 ml of PBS/EDTA+heparin. The number of PMN was determined, using a Neubauer haematocytometer, after staining (1:10 dilution) with Turk's solution (crystal violet 0.01% w/v in acetic acid 3% v/v).
The following peptides were drawn from the lipocortin 1 N-terminus region: LC12-26 (Ac-[…] (SEQ ID NO:6)), LC12-12 (Ac-AMVSEFLKQAW (SEQ ID NO:4)), LC1 13-25 (FIENEEQEYVQTV (SEQ ID NO:7)), LC12-6(Ac-AMVSE ((SEQ ID NO 3))), or scramble LC12-6 (AC-SVEMA (SEQ ID NO:5)) were administered s.c. 30 min prior to injection of 1 mg zymosan into the air-pouches. Control mice were treated with sterile PBS (100 μl s.c.).

[2] = tested on: A549 cell line; conditions: in vitro A549 model; previous publications (Croxtall et al., 1993, 1998); result in words; cited from earlier work

## AC-SVEMA (SEQ ID NO:5) (Ac-SVEMA) [scrambled version of AMVSE, reference compound]
[1]
  activity in the in vivo animal model of inflammation: inactive

## Ac-AMVSE ((SEQ ID NO 3)) [LC12-6, N-acetylated lipocortin 1 fragment, residues 2-6]
[1]
  activity in the in vivo animal model of inflammation: active
  Approximate ED50, inhibition of PMN migration: ~110 nmol

## Ac-AMVSEFLKQAW (SEQ ID NO:4) [LC12-12, N-acetylated lipocortin 1 fragment, residues 2-12]
[1]
  activity in the in vivo animal model of inflammation: active
  Approximate ED50, inhibition of PMN migration: ~110 nmol

## Ac-AMVSEFLKQAWFIENEEQEYVQTVK (SEQ ID NO:6) [LC12-26, reference compound]
[1]
  Approximate ED50, inhibition of PMN migration: ~45 nmol

## EQEYVQTV (SEQ ID NO:2) [LC118-25, lipocortin 1 fragment, residues 18-25]
[2]
  inhibitory effect on A549 cell function: significant inhibitory activity
